We go through nine compounds from PMC6063323, “Synthesis, radiosynthesis, in vitro and first in vivo evaluation of a new matrix metalloproteinase inhibitor based on γ-fluorinated α-sulfonylaminohydroxamic acid” (EJNMMI Radiopharmacy and Chemistry, 2018).

For one data set, the system named is MMP-9. As to conditions: cited from earlier work.
Details of data set [1]: method as in Wagner et al., [2011]. As to conditions: ref Wagner et al., [2011], cited from earlier work.
The next data set concerns MMP-2. As to conditions: cited from earlier work.
The target of another data set is activated MMP-9 (Homo sapiens, UniProt P14780). The data set can be described thus: fluorometric in vitro MMP-9 inhibition assay. The format is biochemical. The settings on record: SD from three independent experiments; enzyme 2 nM, 37 °C, 30 min preincubation. How it is done: (§1) The inhibition potencies of (R)-9a and (S)-9a against activated MMP-2 and -9 were assayed using the synthetic fluorometric substrate (7-methoxycoumarin-4-yl)acetyl-Pro-Leu-Gly-Leu-(3-(2,4-dinitrophenyl)-L-2,3-diaminopropionyl)Ala-Arg-NH2 (R&D Systems) as described previously (Huang et al. [1997]). Briefly, MMP-2 and -9 (each at 2 nM) and test compounds at varying concentrations (10 pM to 1 mM) in Tris (50 mM), pH 7.5, containing NaCl (0.2 M), CaCl2 (5 mM), ZnSO4 (20 μM), and 0.05% Brij 35 were preincubated at 37 °C for 30 min. An aliquot of substrate (10 μL of a 50 μM solution) was added to the enzyme inhibitor mixture (90 μL), and the fluorescence changes were monitored using a TriStar2 Multimode Reader LB 942, (Berthold) with excitation and emission wavelengths of 340 and 405 nm, respectively. Reaction rates were measured from the initial 10 min and plotted as a function of inhibitor concentration. From the resulting inhibition curves, the IC50 values were calculated by nonlinear regression analysis using the Grace 5.1.8 software (Linux).
(§2) The MMP inhibition potencies of the hydroxamic acids (R)-9a and (S)-9a (Fig. 2) against MMP-2 and -9 were measured by fluorometric in vitro inhibition assays, following the previously described procedure (Huang et al. [1997]).

The target of another data set is T1, activated MMP-2 (Homo sapiens, UniProt P08253).
T1 sequence (P08253 110-660): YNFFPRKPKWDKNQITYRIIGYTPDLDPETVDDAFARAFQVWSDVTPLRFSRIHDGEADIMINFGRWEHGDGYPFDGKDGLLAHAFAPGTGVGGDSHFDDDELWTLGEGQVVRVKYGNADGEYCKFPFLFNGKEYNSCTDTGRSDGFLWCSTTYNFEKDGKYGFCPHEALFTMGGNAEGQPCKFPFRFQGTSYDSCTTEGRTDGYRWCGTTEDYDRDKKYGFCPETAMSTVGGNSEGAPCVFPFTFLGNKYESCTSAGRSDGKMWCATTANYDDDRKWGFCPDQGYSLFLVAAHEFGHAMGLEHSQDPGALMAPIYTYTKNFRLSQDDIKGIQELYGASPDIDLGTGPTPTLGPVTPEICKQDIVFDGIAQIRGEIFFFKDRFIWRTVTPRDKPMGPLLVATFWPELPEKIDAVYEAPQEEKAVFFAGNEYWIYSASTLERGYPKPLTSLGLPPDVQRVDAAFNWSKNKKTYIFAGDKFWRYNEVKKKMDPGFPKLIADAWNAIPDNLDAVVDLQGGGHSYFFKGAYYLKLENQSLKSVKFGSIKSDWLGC
The data set can be described thus: fluorometric in vitro MMP-2 inhibition assay. The format is biochemical. As to conditions: SD from three independent experiments; enzyme 2 nM, 37 °C, 30 min preincubation. How it is done: as §1, §2

A short description of data set [2]: water/octanol partition coefficient logD (exp.). The format is physicochemical. As to conditions: for logD: 1-octanol/PBS pH 7.4, determined for (S)-[^18F]9a. How it is done:
The lipophilicity of the radioligand (S)-[^18F]9a was assessed by determination of the water/octanol partition coefficients following a published procedure (Prante et al. [2006]). In brief, approximately 20 kBq of (S)-[^18F]9a were mixed with equal amounts (0.5 mL) of PBS (pH 7.4) and 1-octanol and the resulting biphasic system was mixed vigorously for 1 min at rt. The tubes were centrifuged (3000 rpm, 2 min) and 400 μL of the octanol phase were separated and again mixed with equal amounts (400 μL) of PBS. The resulting biphasic system was again mixed vigorously of 1 min at rt. After centrifugation (3000 rpm, 2 min) three samples of 100 μL of each layer were counted in a gamma counter (Wallac Wizard, Perkin-Elmer Life Science). The partition coefficient was determined by calculating the ratio cpm(octanol)/cpm(PBS) and expressed as logD (exp.) (log(cpmoctanol/cpmPBS)). Two independent experiments were performed in triplicate and data were provided as mean values ± standard deviation.
Radiosynthesis of the ^18F-labelled counterpart (S)-[^18F]9a was accomplished via direct nucleophilic substitution reaction of the tosylate precursor (S)-9b by [^18F]fluoride according to the synthesis described for [^18F]FEtO-CGS 25966 (Wagner et al. [2011]). The radiosynthesis provided (S)-[^18F]9a with radiochemical yields of 31–46% (n = 3), radiochemical purities of > 97% in 95–110 min from the end of radionuclide production and molar activities of 2.8–3.4 GBq/μmol after radiosynthesis. The experimental logD value of the radioligand was determined in phosphate-buffered saline (PBS) as already described (Prante et al. [2006]).

Data set [3] in a line: small animal PET in vivo biodistribution after intravenous injection. Details: species or system C57/BL6 mice. How it is done:
Adult C57/BL6 mice (male, 21–23 g) were anesthetized by isoflurane/O2, and one lateral tail vein was cannulated using a 27 Ga needle connected to 15 cm polyethylene catheter tubing. (S)-[^18F]9a (500 kBq/g bodyweight) was injected as a bolus (50 μL of compound flushed with 100 μL of saline) via the tail vein, and subsequent PET scanning was performed.
PET experiments were carried out using a sub-millimeter high resolution (0.7 mm full width at half maximum) small animal scanner (32 module quadHIDAC, Oxford Positron Systems Ltd., Oxford, UK) with uniform spatial resolution (< 1 mm) over a large cylindrical field (165 mm diameter, 280 mm axial length) (Schäfers et al. [2005]).
List-mode data were acquired for 120 min and reconstructed into dynamic time frames using an iterative reconstruction algorithm. Subsequently, the scanning bed was transferred to the computed tomography (CT) scanner (Inveon, Siemens Medical Solutions, U.S.) and a CT acquisition with a spatial resolution of 80 μm was performed for each mouse. Reconstructed image data sets were co-registered based on extrinsic markers attached to the multimodal scanning bed and the image analysis software (Inveon Research Workplace 3.0, Siemens Medical Solutions, USA). Three-dimensional volumes of interest (VOIs) were defined over the respective organs in CT data sets, transferred to the co-registered PET data and analyzed quantitatively. Regional uptake was calculated as percentage of injected dose by dividing counts per milliliter in the VOI by total counts in the mouse multiplied by 100 (%ID/mL). Routes of tracer elimination were assessed by VOI segmentation of kidneys and bladder (renal route), and liver, gall bladder, small and large intestine (hepatobiliary route). Total activity for each route was calculated as percentage of injected dose by dividing the total counts in the respective VOI by total counts in the mouse multiplied by 100 (%ID).
Maximum intensity projections (MIPs) of the whole body in vivo biodistribution of tracer-associated radioactivity in an adult C57/Bl6 mouse 0–2, 2–5, 5–10, 20–30 and 80–90 min after intravenous injection of (S)-[^18F]9a are shown in Fig. 3.

The nature of data set [4]: in vivo biostability and metabolism study (radio-HPLC of plasma, urine and tissue homogenates). Details: species or system OCR (CD1) wild type mice. The settings on record: 30 min p.i., mouse. As to the method: Approximately 11.1 MBq (S)-[^18F]9a (in a maximum volume of 200 μL) was injected into three mice each via tail vein injection. The animals were sacrificed at 30 min p.i.. Whole blood was obtained, weighed, and centrifuged at 3000 rpm (3 min) to isolate plasma. Urine was also collected. The muscle, brain, kidneys, and liver were harvested and homogenized in lysis buffer (1% SDS in PBS buffer). An aliquot of each sample (400 μL) was subsequently removed, mixed with 400 μL of acetonitrile and 100 μL of 3% acetic acid in acetonitrile, vigorously mixed, and placed on dry ice for 3 min. After thawing, the samples were centrifuged at 13000 rpm (8 min) to allow for the separation of supernatant from the pellet. The supernatant was then removed and assayed for radioactivity in a PerkinElmer Wizard γ-counter (20 s). The samples were analyzed by HPLC, using a γ-detector (Raytest GmbH/Agilent). HPLC was done on a Phenomenex C18 column (250 mm × 4.6 mm) using a gradient method with acetonitrile and water (both having 0.05% TFA).
An in vivo biostability and metabolism study was performed in three 10-month old female OCR (CD1) wild type mice 30 min p.i.

The mark [5] stands for this setting: Table 1, ref Mac Pherson et al. [1997], Scozzafava et al. 2000, Behrends et al. [2015], read-out: IC50 values MMP-9.
The mark [6] stands for this setting: ref Behrends et al., [2015], read-out: IC50 MMP-9.
Where [7] appears, read: Table 1, ref Mac Pherson et al. [1997], Scozzafava et al. 2000, Behrends et al. [2015], read-out: IC50 values MMP-2.
[8] abbreviates: ref Behrends et al., [2015], read-out: IC50 MMP-2.

Structures are written as SMILES. Read-outs that look alike come from different tables or passages of the source.

activated MMP-9, sequence (P14780 107-707 limits assumed): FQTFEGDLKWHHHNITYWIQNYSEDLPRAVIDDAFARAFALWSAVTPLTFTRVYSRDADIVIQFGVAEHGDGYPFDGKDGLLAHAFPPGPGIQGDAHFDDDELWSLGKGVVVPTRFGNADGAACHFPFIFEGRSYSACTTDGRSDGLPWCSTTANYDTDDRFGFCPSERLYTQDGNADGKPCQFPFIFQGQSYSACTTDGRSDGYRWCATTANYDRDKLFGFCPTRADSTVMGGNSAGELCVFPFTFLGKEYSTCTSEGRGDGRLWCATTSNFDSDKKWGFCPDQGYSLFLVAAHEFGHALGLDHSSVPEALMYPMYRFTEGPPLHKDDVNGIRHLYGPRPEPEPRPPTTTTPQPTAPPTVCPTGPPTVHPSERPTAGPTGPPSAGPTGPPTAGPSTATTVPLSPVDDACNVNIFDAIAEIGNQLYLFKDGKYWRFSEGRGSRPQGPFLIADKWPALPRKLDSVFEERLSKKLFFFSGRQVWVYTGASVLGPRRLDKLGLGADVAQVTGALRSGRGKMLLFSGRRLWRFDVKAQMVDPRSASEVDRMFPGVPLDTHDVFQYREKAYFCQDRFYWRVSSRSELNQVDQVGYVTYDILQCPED

`CC(C)[C@H](C(=O)NO)N(Cc1ccccc1)S(=O)(=O)c1ccc(OCCF)cc1` [(R)-FEtO- CGS 25966]: the IC50 is 50 ± 27 nM with MMP-9 (ref Wagner et al., [2011], read-out: IC50 MMP-9) and 4 ± 3 nM in the data set with MMP-2 (ref Wagner et al., [2011], read-out: IC50 MMP-2). Besides, the “logD (exp.)” value in data set [1] is on record as 2.02 ± 0.03; in data set [1] (listed as the analog derived from CGS 25966) it was 2.0.
For `C=C(F)C[C@H](C(=O)NO)N(Cc1ccccc1)S(=O)(=O)c1ccc(OCCF)cc1` [(R)-9a], the IC50 against activated MMP-9 is 0.5 ± 0.3 nM; against activated MMP-2, 10.4 ± 5.9 nM.
Regarding `C=C(F)C[C@@H](C(=O)NO)N(Cc1cccnc1)S(=O)(=O)c1ccc(OC)cc1` [(S)-2], the IC50 is 4.9 nM in the data set on MMP-9 (setting [5]), 4.9 ± 0.4 nM in the data set on MMP-9 (setting [6]), 7.2 nM in the data set on MMP-2 (setting [7]) and 7.2 ± 0.1 nM in the data set with MMP-2 (setting [8]).
For `COc1ccc(S(=O)(=O)N(Cc2cccnc2)[C@H](CCF)C(=O)NO)cc1` [(R)-1], the IC50 in the data set with MMP-9 (setting [5]) was 12.3 nM; with MMP-2 (setting [7]) it was 6.4 nM.
Consider `COc1ccc(S(=O)(=O)N(Cc2cccnc2)[C@@H](CCF)C(=O)NO)cc1` [(S)-1], for which the values for the IC50 in the data set with MMP-9 (setting [5]) and in the data set with MMP-2 (setting [7]) were 3 nM and 32.8 nM, respectively.
Consider `C=C(F)C[C@H](C(=O)NO)N(Cc1cccnc1)S(=O)(=O)c1ccc(OC)cc1` [(R)-2], for which the IC50 with MMP-9 (setting [5]) was 8.3 nM; in the data set on MMP-9 (setting [6]), 8.3 ± 0.1 nM; in the data set on MMP-2 (setting [7]), 9.3 nM; in the data set with MMP-2 (setting [8]), 9.3 ± 2 nM.
With `COc1ccc(S(=O)(=O)N(Cc2cccnc2)[C@@H](C(=O)NO)C(C)C)cc1` [(R)-CGS 27023A], the 50% inhibitory concentration (IC50) in the data set with MMP-9 (setting [5]) was 8 nM; in the data set with MMP-2 (setting [7]), 20 nM.
In turn, `C=C(F)C[C@@H](C(=O)NO)N(Cc1ccccc1)S(=O)(=O)c1ccc(OCCF)cc1` [(S)-9a, (S)-2-[N-Benzyl-4-(2-fluoroethoxy)phenylsulfonamido]-4-fluoro-N-hydroxypent-4-enamide] yielded a logD in data set [2] of 1.16 ± 0.2. Also, the results for the IC50 against activated MMP-9 and at activated MMP-2 were 0.1 ± 0.01 nM and 0.3 ± 0.03 nM, respectively.
Take `C=C(F)C[C@@H](C(=O)NO)N(Cc1ccccc1)S(=O)(=O)c1ccc(OCC[18F])cc1` [(S)-[^18F]9a, (S)-2-[N-Benzyl-4-(2-[^18F]fluoroethoxy)phenylsulfonamido]-4-fluoro-N-hydroxypent-4-enamide]: in data set [3] (80–90 min p.i., mouse, i.v.), the “tracer remaining in non-excretion organs” value was “no significant tracer remaining”. In addition, in data set [3] (90 min post injection), the “injected tracer activity cleared from the blood and tissues” value is given as 73%. For the same compound, the “defluorination in vivo (bone uptake of [^18F]fluoride ions)” value in data set [3] (entire dynamic imaging study, mouse) is given as “not observed”. Also, in data set [3] (mouse, i.v., PET), the “accumulation in brain, myocardium, lung and muscles (unspecific binding)” value is on record as “not observed”; the “clearance of tracer and metabolites by renal excretion” value came to 8%; the “clearance of tracer and metabolites through the liver and the gallbladder” value came out at 92%. Besides, the logD in data set [2] was 1.16. Further, the “hydrophilicity in comparison to [^18F]FEtO-CGS25966” value in data set [2] (from experimental logD values) turned out to be 7 times. In data set [4], the “extent of metabolism in plasma (into four metabolites)” value is “about 92%”; the “extent of metabolism in plasma, kidneys, urine, muscle and brain” value is listed as “about 90%”. Also, in data set [4] (radio-HPLC), the “share of radioactivity in brain” value was determined as 12 % HPLC, the “share of radioactivity in kidney” value came to 17 % HPLC, the “share of radioactivity in liver” value was found to be 1 % HPLC and the “share of radioactivity in muscle” value was found to be 17 % HPLC. Also, the “share of radioactivity in plasma” value in data set [4] (radio-HPLC) amounted to 8 % HPLC. Moreover, the “metabolism of the parent compound in urine” value in data set [4] (to four polar metabolites) is “complete metabolism”.

Broadly, the IC50 is the point on the concentration scale where inhibition reaches its midpoint. What is called logD is lipophilicity at a set pH, counting ionised and neutral species.
